This assay relates to IL-12 induced STAT4 phosphorylation in human CD3+ T cells. Put plainly: Assay 12: inhibition of IL-12-induced STAT4 phosphorylation in human CD3+ T cells. To be noted: T-cell, read-out: pIC50 for inhibition of IL-12 induced STAT4 phosphorylation (converted). In kind it is cell-based. The protocol:
Assay 12: Inhibition of IL-12-Induced STAT4 Phosphorylation in Human CD3+ T Cells
This cellular potency assay for JAK inhibition was carried out by measuring interleukin-12 (IL-12, R&D Systems) induced STAT4 phosphorylation in human CD3^+ T cells. The CD3 antibody (Becton Dickinson (BD) Biosciences) was conjugated to R-Phycoerythrin (R-PE). The pSTAT4 antibody (pTyr641, BD Biosciences) was conjugated with Alexa Fluor 647.
Human peripheral blood mononuclear cells were cultured at 37° C. in a 5% CO2 humidified incubator in RPMI medium (Life Technologies) supplemented with 10% FBS (Life Technologies), 100 U/mL penicillin, 100 μg/mL streptomycin (Life Technologies), 2 mM GlutaMAX (Life Technologies), plate bound anti CD3 (5 μg/mL, UCHT1, BD Biosciences) and soluble anti-CD28 (1 μg/mL, CD28.2, BD Biosciences) for 3 days. Cells were then resuspended in RPMI medium (Life Technologies) supplemented with 10% FBS (Life Technologies), 100 U/mL penicillin, 100 μg/mL streptomycin (Life Technologies), 2 mM GlutaMAX (Life Technologies) and 10 ng/mL interleukin-2 (IL-2, R&D Systems) for an additional 3 days. […] For dose-response analysis, mean fluorescence intensity values were plotted vs. compound concentrations, and IC50 values were determined from a 4-parameter robust fit model with the Prism software.

With `CCS(=O)(=O)N1[C@@H]2CCC[C@H]1C[C@H](N(C)c1nc(CO)c(F)c(Nc3cc(C)[nH]n3)n1)C2` [Compound (I), (2-(((1R,3s,5S)-9-(ethylsulfonyl)-9-azabicyclo[3.3.1]nonan-3-yl)(methyl)amino)-5-fluoro-6-((5-methyl-1H-pyrazol-3-yl)amino)pyrimidin-4-yl)methanol], the IC50 was 63.1 nM.

The values above are taken from US10774080B2, “Pyrimidine compound as JAK kinase inhibitor” (THERAVANCE BIOPHARMA R&D IP, LLC, priority 2017, dated 2020).
